Experimental data published in the supplement of paper PMC4862054.

Experiments:
Details in all cases: incubation time: 72 h
[1] = system: MDA-MB-453; test: normalised viability (% of control), CellTiter-Blue; higher = more viable cells (about 100 = DMSO control)
Summary of the method: (§1)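 Breast cancer cell lines in 20 µl suspension were seeded onto 384-well plates pre-loaded with compound dissolved in 5 µl medium, then incubated 72 h. CellTiter-Blue reagent (2.5 µl) was added for 2 h at 37 °C and fluorescence read at 560/590 nm. Each plate was normalised to vehicle (100) and a positive kill control (0), with Z'-factor quality control. The value is normalised viability at one listed concentration of the series.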

[2] = system: DU-4475; test: as above
Summary of the method: as §1

[3] = system: CAL-148; test: as above
Summary of the method: as §1

[4] = system: MDA-MB-453; test: normalised response (% of control), CellTiter-Glo; higher = more viable cells (100 = DMSO, 0 = benzethonium chloride kill control)
Summary of the method: (§2)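 Each entry is the normalised signal at a single concentration within a series. The series comprised 5 concentrations in 10-fold steps over a compound-specific 10,000-fold range, placed in 384-well plates into which breast cancer cell lines were seeded as 20 µl suspension and incubated 72 h. CellTox Green (485/520 nm) fluorescence and then CellTiter-Glo luminescence were read, with signals normalised per plate to 0.1 % DMSO (100) and a positive kill control (0).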

[5] = system: DU-4475; test: as above
Summary of the method: as §2

[6] = system: HCC1143; test: as above
Summary of the method: as §2

[7] = system: CAL-148; test: as above
Summary of the method: as §2

[8] = system: MDA-MB-436; test: as above
Summary of the method: as §2

[9] = system: HCC1937; test: as above
Summary of the method: as §2

[10] = system: CAL-85-1; test: as above
Summary of the method: as §2

[11] = system: MFM-223; test: as above
Summary of the method: as §2

[12] = system: HCC1599; test: as above
Summary of the method: as §2

[13] = system: SK-BR-3; test: as above
Summary of the method: as §2

[14] = system: Hs578T; test: as above
Summary of the method: as §2

[15] = system: CAL-51; test: as above
Summary of the method: as §2

[16] = system: MDA-MB-468; test: as above
Summary of the method: as §2

[17] = system: MDA-MB-231; test: as above
Summary of the method: as §2

[18] = system: HDQ-P1; test: as above
Summary of the method: as §2

[19] = system: CAL-120; test: as above
Summary of the method: as §2

[20] = system: MCF-10A; test: as above
Summary of the method: as §2

[21] = system: BT-474; test: as above
Summary of the method: as §2

[22] = system: BT-549; test: as above
Summary of the method: as §2

SMILES | normalised viability [1] [%] | normalised viability [2] [%] | normalised viability [3] [%] | normalised response [4] [%] | normalised response [5] [%] | normalised response [6] [%] | normalised response [7] [%] | normalised response [8] [%] | normalised response [9] [%] | normalised response [10] [%] | normalised response [11] [%] | normalised response [12] [%] | normalised response [13] [%] | normalised response [14] [%] | normalised response [15] [%] | normalised response [16] [%] | normalised response [17] [%] | normalised response [18] [%] | normalised response [19] [%] | normalised response [20] [%] | normalised response [21] [%] | normalised response [22] [%]
CC(=O)[C@]1(O)Cc2c(O)c3c(c(O)c2[C@@H](O[C@H]2C[C@H](N)[C@H](O)[C@H](C)O2)C1)C(=O)c1ccccc1C3=O [Idarubicin] (1000 nM) | 11.6 | 0.02 | 1.34 | 31.2 | 0.36 | 16.6 | 0.6 | 20.6 | 30.1 | 3.35 | 9.33 | 7.7 | 7.62 | 13.1 | 0.98 | 5.57 | 24.7 | 39 | 30 | 27.3 | 16.6 | 6.26
Cn1cc(C2=C(c3cn(C4CCN(Cc5ccccn5)CC4)c4ccccc34)C(=O)NC2=O)c2ccccc21 [Enzastaurin] (10000 nM) | 51.9 | 86 | 67.4 | 101 | 105 | 96.5 | 107 | 101 | 101 | 85.1 | 103 | 78.2 | 85.6 | 91 | 82.1 | 82.9 | 102 | 70.1 | 91.1 | 87.5 | 96 | 61.2
COc1ccc(S(=O)(=O)Nc2cccnc2Nc2ccc(O)cc2)cc1 [ABT-751] (10000 nM) | 20.6 | 6.9 | 12.7 | 50.9 | 43.6 | 55.5 | 41.2 | 26.8 | 71.3 | 40.9 | 38.4 | 16.5 | 12.3 | 17.6 | 25.2 | 29.2 | 46.6 | 70.1 | 61.1 | 59.8 | 53.8 | 40.3
CC(C)(C)NC(=O)[C@H]1CC[C@H]2[C@@H]3CC[C@H]4NC(=O)C=C[C@]4(C)[C@H]3CC[C@]12C [Finasteride] (10000 nM) | 23 | 0.15 | 36.5 | 93.4 | 103 | 96.6 | 105 | 108 | 97.8 | 96.5 | 93.4 | 97 | 94.4 | 99.9 | 91.7 | 102 | 102 | 95.7 | 99.7 | 110 | 96.5 | 91.7
Cc1cc(Nc2nc(N[C@@H](C)c3ncc(F)cn3)ncc2Cl)[nH]n1 [AZD1480] (1000 nM) | 56.6 | 74.7 | 100 | 72.4 | 81.7 | 92.7 | 87.3 | 91.6 | 96 | 96 | 50.8 | 104 | 90.5 | 82 | 110 | 84.6 | 78.2 | 93.6 | 70 | 89.5 | 82.5 | 82.1
CC(O)(CS(=O)(=O)c1ccc(F)cc1)C(=O)Nc1ccc(C#N)c(C(F)(F)F)c1 (centres undefined) [Bicalutamide] (10000 nM) | 100 | 121 | 107 | 88.5 | 98.4 | 104 | 107 | 114 | 93.8 | 101 | 101 | 95.5 | 103 | 95.6 | 92.8 | 109 | 106 | 96.4 | 105 | 107 | 108 | 94.2
C/C(=C\c1csc(C)n1)[C@@H]1C[C@@H]2O[C@]2(C)CCC[C@H](C)[C@H](O)[C@@H](C)C(=O)C(C)(C)[C@@H](O)CC(=O)N1 [Ixabepilone] (1000 nM) | 5.47 | 21.5 | 20.9 | 106 | 100 | 97.6 | 107 | 103 | 104 | 26.1 | 101 | 115 | 104 | 99 | 23.7 | 23 | 73.8 | 99.1 | 98 | 95.6 | 41.9 | 20.8
